In ChEMBL document CHEMBL1123023, “Syntheses and differentiating action of vitamin D endoperoxides. Singlet oxygen adducts of vitamin D derivatives in human myeloid leukemia cells (HL-60)” (1985) one finds Phagocytosis and Binding activity data, which are given here for 16 compounds.

One test has as its system HL-60. Nature of the test: Evaluated for its ability to induce phagocytosis in human myeloid leukemia cells (HL-60). It is filed as functional. Further details: unit not given here.
For test [1], the target named is T1, Vitamin D3 receptor (Homo sapiens) (UniProt P11473).
T1 sequence (whole entry): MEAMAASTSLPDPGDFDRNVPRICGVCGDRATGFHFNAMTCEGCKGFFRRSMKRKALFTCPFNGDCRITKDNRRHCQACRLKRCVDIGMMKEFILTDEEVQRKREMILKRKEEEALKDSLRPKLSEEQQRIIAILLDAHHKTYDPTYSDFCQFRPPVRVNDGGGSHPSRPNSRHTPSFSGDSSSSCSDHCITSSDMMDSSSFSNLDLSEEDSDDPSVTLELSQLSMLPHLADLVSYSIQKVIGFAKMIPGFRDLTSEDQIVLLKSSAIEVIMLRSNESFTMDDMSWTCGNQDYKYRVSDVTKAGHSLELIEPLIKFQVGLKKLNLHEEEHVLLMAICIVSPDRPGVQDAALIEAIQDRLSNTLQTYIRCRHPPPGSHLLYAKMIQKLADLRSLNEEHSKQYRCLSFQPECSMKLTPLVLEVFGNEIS
Description: Evaluated for its binding affinity towards cytosol receptor in human myeloid leukemia cells (HL-60), by using 1-alpha,25-(OH)2D3 as radioligand

Molecules are shown by their SMILES.

In turn, `CC(C)CCC[C@@H](C)[C@H]1CC[C@H]2/C(=C/[C@@H]3OOCC4=C3C[C@@H](O)C[C@@H]4O)CCC[C@]12C` yielded a Phagocytosis in the test on HL-60 of over 1000. The same compound gave a Binding activity in test [1] of over 10000.

The compound `CC(C)[C@H](O)CC[C@@H](C)[C@H]1CC[C@H]2/C(=C/[C@@H]3OOCC4=C3C[C@@H](O)C[C@@H]4O)CCC[C@]12C` came in with a Phagocytosis in the test with HL-60 of 200. Moreover, the Binding activity in test [1] was determined as 800.

In the test on HL-60, `C=C1CC[C@H](O)C/C1=C/C=C1\CCC[C@]2(C)[C@@H]([C@H](C)CCCC(O)(C(F)(F)F)C(F)(F)F)CC[C@@H]12` came in with a Phagocytosis of 200. The same compound displayed a Binding activity in test [1] of 50. Turning to `C=C1/C(=C\C=C2/CCC[C@]3(C)[C@@H]([C@H](C)CCCC(C)C)CC[C@@H]23)C[C@@H](O)C[C@@H]1O` [ALFACALCIDOL], in the test on HL-60, the Phagocytosis is 320. In test [1], this compound registered a Binding activity of 800. The matching figures for `CC(C)CCC[C@@H](C)[C@H]1CC[C@H]2/C(=C/[C@H]3OOCC4=C3C[C@@H](O)C[C@@H]4O)CCC[C@]12C`: over 1000 and over 10000.

In the test on HL-60, `C=C1/C(=C\C=C2/CCC[C@]3(C)[C@@H]([C@H](C)CCCC(C)(C)O)CC[C@@H]23)C[C@@H](O)C[C@@H]1O` [CALCITRIOL] displayed a Phagocytosis of 1. For `C=C1CC[C@H](O)C/C1=C/C=C1\CCC[C@]2(C)[C@@H]([C@H](C)CCC(F)(F)C(C)(C)O)CC[C@@H]12`, in the test on HL-60, the Phagocytosis is 200. The same compound returned a Binding activity in test [1] of 1000. As for `C[C@H](CCC(F)(F)C(C)(C)O)[C@H]1CC[C@H]2/C(=C/[C@@H]3OOCC4=C3C[C@@H](O)CC4)CCC[C@]12C.C[C@H](CCC(F)(F)C(C)(C)O)[C@H]1CC[C@H]2/C(=C/[C@H]3OOCC4=C3C[C@@H](O)CC4)CCC[C@]12C`, in the test on HL-60, the Phagocytosis was found to be 45. For the same compound, the Binding activity in test [1] was determined as 1000. The like results for `C=C1/C(=C\C=C2/CCC[C@]3(C)[C@@H]([C@H](C)CC[C@@H](O)C(C)C)CC[C@@H]23)C[C@@H](O)C[C@@H]1O` [TACALCITOL] were, in that order, 1 and 1.

Compound `C=C1CC[C@H](O)C/C1=C/C=C1\CCC[C@]2(C)[C@@H]([C@H](C)CCCC(C)(C)O)CC[C@@H]12` [CALCIFEDIOL ANHYDROUS] yielded a Phagocytosis in the test with HL-60 of 320. The compound further gave a Binding activity in test [1] of 600. The matching figures for `C[C@H](CCCC(O)(C(F)(F)F)C(F)(F)F)[C@H]1CC[C@H]2/C(=C/[C@@H]3OOCC4=C3C[C@@H](O)CC4)CCC[C@]12C.C[C@H](CCCC(O)(C(F)(F)F)C(F)(F)F)[C@H]1CC[C@H]2/C(=C/[C@H]3OOCC4=C3C[C@@H](O)CC4)CCC[C@]12C`: 30 and 1500. The like results for `C[C@H](CCCC(C)(C)O)[C@H]1CC[C@H]2/C(=C/[C@H]3OOCC4=C3C[C@@H](O)CC4)CCC[C@]12C` were, in that order, 120 and 3000.

For `C[C@H](CCCC(C)(C)O)[C@H]1CC[C@H]2/C(=C/[C@H]3OOCC4=C3C[C@@H](O)C[C@@H]4O)CCC[C@]12C`, the Phagocytosis with HL-60 was 130. This compound also gave a Binding activity in test [1] of 800. With `C[C@H](CCCC(C)(C)O)[C@H]1CC[C@H]2/C(=C/[C@@H]3OOCC4=C3C[C@@H](O)CC4)CCC[C@]12C`, the Phagocytosis in the test with HL-60 stood at 130. The same compound displayed a Binding activity in test [1] of 3000.

For `C[C@H](CCCC(C)(C)O)[C@H]1CC[C@H]2/C(=C/[C@@H]3OOCC4=C3C[C@@H](O)C[C@@H]4O)CCC[C@]12C`, the Phagocytosis in the test with HL-60 worked out at 200. Also, the Binding activity in test [1] was 800. The matching figures for `CC(C)[C@H](O)CC[C@@H](C)[C@H]1CC[C@H]2/C(=C/[C@H]3OOCC4=C3C[C@@H](O)C[C@@H]4O)CCC[C@]12C`: 150 and 800.
